Assay results as given in US8975234B2, “Anti-bacterial infection, inflammation, and leukemia composition and use thereof” (priority 2011, dated 2015).
≈ marks a conversion by molar mass, not a printed value. Read-outs that look alike come from different tables or passages of the source.

Assays:
[1] = system: MSSA (Methicillin-susceptible Staphylococcus aureus); test: Minimum inhibitory concentration (broth microdilution) and FIC index; type: cell-based
Procedure: (§1) A serial of twofold dilution of the tested antibiotics (oxacillin, erythromycin, ampicillin, kanamycin, levofoxacin, vancomycin and doxycycline) was perform by Broth microdilution method to a final concentration of 2-512 μg/mL. The bacterial overnight culture was collected and re-suspended in the Muller-Hilton (M-H) broth. An aliquot of cell suspension (OD600=0.1) was prepared. The bacterial suspensions were plated in 96-well plate and incubated with test antibiotics at 37° C. in a 5% CO2 incubator (Table 1 to Table 4).
(§2) The […], […] and antagonism between two drugs was evaluated by the following formula:
(§3) [formula] The criteria of fractional inhibitory concentration index: […]

[2] = system: MRSA 18631; test: as above; type: cell-based, Staphylococcus aureus
Procedure: as §1, §2, §3

[3] = system: MRSA 19615; test: as above; type: cell-based, Staphylococcus aureus
Procedure: as §1, §2, §3

[4] = system: MRSA 18271; test: as above; type: cell-based, Staphylococcus aureus
Procedure: as §1, §2, §3

[5] = system: standard MRSA strain (ATCC 33591); test: Minimum inhibitory concentration (broth microdilution); type: cell-based, Staphylococcus aureus; conditions: Table 1; for MIC: Staphylococcus aureus
Procedure: as §1

[6] = system: K-562 cells; test: ROS test (DCF-DA); type: cell-based, human; conditions: pre-treatment 10 μM before Tellimagrandin II 50 μM for 2 hours
Procedure: A radical specific fluorescent dye, 2′,7′-dichlorofluorescein (DCF-DA) was used to detect H2O2/NO-based radicals or O2— in cells respectively.
A total of 3 mL cell solution at the concentration of 1×10^6 K-562 cells per mL was cultured with 6 cm cell culture plates in an incubator supplied with 5% CO2 at 37° C. for 30 minutes so that cells could adapt to the environment. Tellimagrandin II solutions of different concentrations were added by order so that the final concentrations are 0, 30, 40 and 50 μM respectively. The solution was placed in incubator with 5% CO2 at 37° C. for 2 hours before being centrifuged at 3,500 rpm at 4° C. for 5 minutes and then being rinsed by PBS once. 2′,7′-dichlorofluorescein (DCF-DA) was added before the solution was put into dark incubator for 45 minutes and then rinsed by PBS once again. Finally, 1 mL PBS was used to resuspend the cells before BD FACScan was used to detect the fluorescent signal.

[7] = DPPH scavenging assay; conditions: 100 μM; −FeCl2
Procedure: Test reagents, natural extracts and Vitamin C (ascorbic acid) were dissolved in methanol to make a stock solution 10×. Vitamin C was used as the positive control. 120 μM DPPH solution was prepared. Taken 20 μL of stock reagents, natural extracts and Vitamin C on a 96-well microplate, and methanol was added to make up to the total volume of 100 μL. Control was 100 μL methanol. Each sample was mixed with 100 μL DPPH solution and incubated in the dark for 40 minutes. DPPH level of each well was evaluated by detecting the optical density of each well at 517 nm and the results were shown in Table 5.

[8] = Staphylococcus aureus, MSSA, Table 1, MSSA, read-out: Minimum inhibitory concentration
[9] = Staphylococcus aureus, MSSA, Table 2, Non-drug resistant Staphylococcus aureus, with TG II 30 μg/mL, read-out: MIC
[10] = Staphylococcus aureus, MSSA, Table 2, Non-drug resistant Staphylococcus aureus, without TG II, read-out: MIC
[11] = Staphylococcus aureus, MSSA, Table 3, MSSA, Tellimagrandin II (40 μg/ml) −, read-out: MIC
[12] = Table 2, Non-drug resistant Staphylococcus aureus, with TG II 30 μg/mL
[13] = Table 3, MSSA, Tellimagrandin II (40 μg/ml) +
[14] = Staphylococcus aureus, MRSA, Table 1, MRSA 18631, read-out: Minimum inhibitory concentration
[15] = Staphylococcus aureus, MRSA, Table 2, 18631, with TG II 30 μg/mL, read-out: MIC
[16] = Staphylococcus aureus, MRSA, Table 2, 18631, with TG II 40 μg/mL, read-out: MIC
[17] = Staphylococcus aureus, MRSA, Table 2, 18631, without TG II, read-out: MIC
[18] = Staphylococcus aureus, MRSA, Table 3, 18631, Tellimagrandin II (40 μg/ml) −, read-out: MIC
[19] = Table 2, 18631, with TG II 30 μg/mL
[20] = Table 2, 18631, with TG II 40 μg/mL
[21] = Table 3, 18631, Tellimagrandin II (40 μg/ml) +
[22] = Staphylococcus aureus, MRSA, Table 1, MRSA 19615, read-out: Minimum inhibitory concentration
[23] = Staphylococcus aureus, MRSA, Table 2, 19615, with TG II 30 μg/mL, read-out: MIC
[24] = Staphylococcus aureus, MRSA, Table 2, 19615, with TG II 40 μg/mL, read-out: MIC
[25] = Staphylococcus aureus, MRSA, Table 2, 19615, without TG II, read-out: MIC
[26] = Staphylococcus aureus, MRSA, Table 3, 19615, Tellimagrandin II (40 μg/ml) −, read-out: MIC
[27] = Table 2, 19615, with TG II 30 μg/mL
[28] = Table 2, 19615, with TG II 40 μg/mL
[29] = Table 3, 19615, Tellimagrandin II (40 μg/ml) +
[30] = Staphylococcus aureus, MRSA, Table 1, MRSA 18271, read-out: Minimum inhibitory concentration
[31] = Staphylococcus aureus, MRSA, Table 2, 18271, with TG II 30 μg/mL, read-out: MIC
[32] = Staphylococcus aureus, MRSA, Table 2, 18271, with TG II 40 μg/mL, read-out: MIC
[33] = Staphylococcus aureus, MRSA, Table 2, 18271, without TG II, read-out: MIC
[34] = Staphylococcus aureus, MRSA, Table 3, 18271, Tellimagrandin II (40 μg/ml) −, read-out: MIC
[35] = Table 2, 18271, with TG II 30 μg/mL
[36] = Table 2, 18271, with TG II 40 μg/mL
[37] = Table 3, 18271, Tellimagrandin II (40 μg/ml) +

Compound	MIC [1, 8] [µg/mL]	MIC [1, 11] [µg/mL]	FIC [1, 13]	MIC [1, 13] [µg/mL]	MIC [2, 14] [µg/mL]	MIC [2, 18] [µg/mL]	FIC [2, 21]	MIC [2, 21] [µg/mL]	MIC [3, 22] [µg/mL]	MIC [3, 26] [µg/mL]	FIC [3, 29]	MIC [3, 29] [µg/mL]	MIC [4, 30] [µg/mL]	MIC [4, 34] [µg/mL]	FIC [4, 37]	MIC [4, 37] [µg/mL]	MIC [5] [µg/mL]	MIC ([2]; Staphylococcus aureus, MRSA) [µg/mL]	MIC ([3]; Staphylococcus aureus, MRSA) [µg/mL]	MIC ([4]; Staphylococcus aureus, MRSA) [µg/mL]	further results
C[C@H]1COc2c(N3CCN(C)CC3)c(F)cc3c(=O)c(C(=O)O)cn1c23 [Levofloxacin]	> 512	512	1.00	512	> 512	256	2.00	512	> 512	512	1.00	512	> 512	512	1.00	512	32 (≈ 88.6 µM)	–	–	–	MIC [1, 9]: 8 µg/mL; MIC [1, 10]: > 512 µg/mL; FIC [1, 12]: 0.016; MIC [2, 15]: 512 µg/mL; MIC [2, 16]: 512 µg/mL; MIC [2, 17]: > 512 µg/mL; FIC [2, 19]: 1; FIC [2, 20]: 1; MIC [3, 23]: 512 µg/mL; MIC [3, 24]: 512 µg/mL; MIC [3, 25]: > 512 µg/mL; FIC [3, 27]: 1; FIC [3, 28]: 1; MIC [4, 31]: 512 µg/mL; MIC [4, 32]: 512 µg/mL; MIC [4, 33]: > 512 µg/mL; FIC [4, 35]: 1; FIC [4, 36]: 1
CC(=O)N[C@@H](CS)C(=O)O [N-acetyl-L-cysteine]	–	–	–	–	–	–	–	–	–	–	–	–	–	–	–	–	–	–	–	–	ROS production [6]: inhibition of ROS production
CC[C@H]1OC(=O)[C@H](C)[C@@H](O[C@H]2C[C@@](C)(OC)[C@@H](O)[C@H](C)O2)[C@H](C)[C@@H](O[C@@H]2O[C@H](C)C[C@H](N(C)C)[C@H]2O)[C@](C)(O)C[C@@H](C)C(=O)[C@H](C)[C@@H](O)[C@]1(C)O [Erythromycin]	128	–	0.50	64	> 512	–	1.00	512	> 512	–	1.00	512	> 512	–	1.00	512	> 512	512	512	512	–
Penicillin	–	–	–	–	–	–	–	–	–	–	–	–	–	–	–	–	–	–	–	–	Minimum inhibitory concentration ([1]; Table 1, MSSA): >512 µg/mL; Minimum inhibitory concentration ([2]; Table 1, MRSA 18631): >512 µg/mL; Minimum inhibitory concentration ([3]; Table 1, MRSA 19615): >512 µg/mL; Minimum inhibitory concentration ([4]; Table 1, MRSA 18271): >512 µg/mL; Minimum inhibitory concentration [5]: >512 µg/mL
NC[C@H]1O[C@H](O[C@H]2[C@H](O)[C@@H](O[C@H]3O[C@H](CO)[C@@H](O)[C@H](N)[C@H]3O)[C@H](N)C[C@@H]2N)[C@H](O)[C@@H](O)[C@@H]1O [Kanamycin]	> 512	512	–	–	> 512	512	–	–	> 512	512	–	–	> 512	512	–	–	> 512	–	–	–	–
CN[C@H](CC(C)C)C(=O)N[C@H]1C(=O)N[C@@H](CC(N)=O)C(=O)N[C@H]2C(=O)N[C@H]3C(=O)N[C@H](C(=O)N[C@H](C(=O)O)c4cc(O)cc(O)c4-c4cc3ccc4O)[C@H](O)c3ccc(c(Cl)c3)Oc3cc2cc(c3O[C@@H]2O[C@H](CO)[C@@H](O)[C@H](O)[C@H]2O[C@H]2C[C@](C)(N)[C@H](O)[C@H](C)O2)Oc2ccc(cc2Cl)[C@H]1O [Vancomycin]	–	–	–	>2	–	–	1.00	4	–	–	1.00	4	–	–	1.00	4	–	4	4	4	MIC ([1]; Staphylococcus aureus, MSSA): > 2 µg/mL
C[C@H]1c2cccc(O)c2C(=O)C2=C(O)[C@]3(O)C(=O)C(C(N)=O)=C(O)[C@@H](N(C)C)[C@@H]3[C@@H](O)[C@@H]21 [Doxycycline]	128	128	0.063	8	256	256	0.008	2	> 512	512	0.016	8	> 512	512	0.004	2	64 (≈ 144 µM)	–	–	–	MIC [1, 9]: 16 µg/mL; MIC ([1]; Staphylococcus aureus, MSSA, Table 2, Non-drug resistant Staphylococcus aureus, with TG II 40 μg/mL, read-out: MIC): 8 µg/mL; MIC [1, 10]: 128 µg/mL; FIC [1, 12]: 0.125; FIC ([1]; Table 2, Non-drug resistant Staphylococcus aureus, with TG II 40 μg/mL): 0.016; MIC [2, 15]: 2 µg/mL; MIC [2, 16]: 2 µg/mL; MIC [2, 17]: 256 µg/mL; FIC [2, 19]: 0.008; FIC [2, 20]: 0.008; MIC [3, 23]: 16 µg/mL; MIC [3, 24]: 8 µg/mL; MIC [3, 25]: 512 µg/mL; FIC [3, 27]: 0.031; FIC [3, 28]: 0.016; MIC [4, 31]: 2 µg/mL; MIC [4, 32]: 2 µg/mL; MIC [4, 33]: 512 µg/mL; FIC [4, 35]: 0.004; FIC [4, 36]: 0.004
O=C1O[C@H]([C@@H](O)CO)C(O)=C1O [Vitamin C, ascorbic acid]	–	–	–	–	–	–	–	–	–	–	–	–	–	–	–	–	–	–	–	–	DPPH free-radical scavenging activity [7]: 81.09 ± 0.5%
CC1(C)S[C@@H]2[C@H](NC(=O)[C@H](N)c3ccccc3)C(=O)N2[C@H]1C(=O)O [Ampicillin]	–	–	0.50	256	–	–	1.00	512	–	–	1.00	512	–	–	0.031	16	–	512	512	512	MIC ([1]; Staphylococcus aureus, MSSA): 512 µg/mL
